Here are results for 26 compounds from US8497278B2, “Imidazo[1,2-a]pyridine compounds” (priority 2008, dated 2013).

Each structure is given as a SMILES string.

This assay deals with central benzodiazepine receptors. The assay is described as follows: Central benzodiazepine receptor binding (test of Speth et al.). The conditions noted are these: 1000 nM of the compound. The method in brief: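 Values are percent inhibition of central benzodiazepine receptor binding at 1000 nM compound (initial single-point screen at 1.0E-09, 1.0E-07 and 1.0E-05 M). Speth et al. binding test; nonspecific binding defined with excess unlabelled ligand and subtracted from total.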
On to `O=c1[nH]c(Cc2c(-c3ccc(F)cc3)nc3ccc(F)cn23)no1` [Compound 236, 3-((6-fluoro-2-(4-fluorophenyl)imidazo[1,2-a]pyridin-3-yl)methyl)-1,2,4-oxadiazol-5(4H)-one], for which the “% Inhibition at 1000 nM for CBZD” value is reported as “++ (percentage of inhibition of central BZD site binding is greater than 80% in the presence of 1000 nM of the compound)”.
As for `Cc1ccc(-c2nc3ccc(C)cn3c2CON2C(=O)c3ccccc3C2=O)cc1` [Compound 173, 2-((6-methyl-2-p-tolylH-imidazo[1,2-a]pyridin-3-yl)methoxy)isoindoline-1,3-dione], the entry is “++ (percentage of inhibition of central BZD site binding is greater than 80% in the presence of 1000 nM of the compound)”; as for `CCC1=C(C)CN(Cc2c(-c3ccc(C)cc3)nc3ccc(C)cn23)C1=O` [Compound 93, 3-ethyl-4-methyl-1-((6-methyl-2-p-tolyl-H-imidazo[1,2-a]pyridin-3-yl)methyl)-1H-pyrrol-2(5H)-one], “++ (percentage of inhibition of central BZD site binding is greater than 80% in the presence of 1000 nM of the compound)”; as for `CCNc1ccn(Cc2c(-c3ccc(Cl)cc3)nc3ccccn23)c(=O)n1` [Compound 132, 1-((2-(4-chlorophenyl)imidazo[1,2-a]pyridin-3-yl)methyl)-4-(ethylamino)pyrimidin-2(1H)-one], “++ (percentage of inhibition of central BZD site binding is greater than 80% in the presence of 1000 nM of the compound)”.
As to `Cc1cc(Cl)nc(NCc2c(-c3ccc(C#N)cc3)nc3ccc(Cl)cn23)n1` [Compound 161, 4-(6-chloro-3-((4-chloro-6-methylpyrimidin-2-ylamino)methyl)imidazo[1,2-a]pyridin-2-yl)benzonitrile], the “% Inhibition at 1000 nM for CBZD” value is given as “++ (percentage of inhibition of central BZD site binding is greater than 80% in the presence of 1000 nM of the compound)”.
In the case of `Cc1ccc(-c2nc3ccc(C)cn3c2CSc2ccccc2)cc1` [Compound 163, 6-Methyl-3-phenylsulfanylmethyl-2-p-tolyl-imidazo[1,2-a]pyridine], the “% Inhibition at 1000 nM for CBZD” value was “++ (percentage of inhibition of central BZD site binding is greater than 80% in the presence of 1000 nM of the compound)”.
In the case of `Cc1ccc(-c2nc3ccc(C)cn3c2Cn2ncnc2C(=O)N(C)C)cc1` [Compound 70, 2-(6-Methyl-2-p-tolyl-imidazo[1,2-a]pyridin-3-ylmethyl)-2H-[1,2,4]triazole-3-carboxylic acid dimethylamide] it was “+ (percentage of inhibition of central BZD site binding is greater than 50% but less than 80% in the presence of 1000 nM of the compound)”; in that of `Cc1ccc(-c2nc3ccc(C)cn3c2Cn2ccnc2C(C)C)cc1` [Compound 5, 3-((2-Isopropyl-1H-imidazol-1-yl)methyl)-6-methyl-2-p-tolylH-imidazo[1,2-a]pyridine], “++ (percentage of inhibition of central BZD site binding is greater than 80% in the presence of 1000 nM of the compound)”.
In the case of `Cc1ccc(-c2nc3c(Cl)cc(Cl)cn3c2Cn2nc(C)ccc2=O)cc1` [Compound 117, 2-(6,8-Dichloro-2-p-tolyl-imidazo[1,2-a]pyridin-3-ylmethyl)-6-methyl-2H-pyridazin-3-one] it was “++ (percentage of inhibition of central BZD site binding is greater than 80% in the presence of 1000 nM of the compound)”; in that of `COC(=O)c1cc2occc2n1Cc1c(-c2ccc(Cl)cc2)nc2ccccn12` [Compound 33, Methyl 4-((2-(4-chlorophenyl)imidazo[1,2-a]pyridin-3-yl)methyl)-4H-furo[3,2-b]pyrrole-5-carboxylate], “++ (percentage of inhibition of central BZD site binding is greater than 80% in the presence of 1000 nM of the compound)”; in that of `CNC(=O)c1cc(C)nn1Cc1c(-c2ccc(Cl)cc2)nc2ccccn12` [Compound 79, 1-((2-(4-chlorophenyl)imidazo[1,2-a]pyridin-3-yl)methyl)-N,3-dimethyl-1H-pyrazole-5-carboxamide], “+ (percentage of inhibition of central BZD site binding is greater than 50% but less than 80% in the presence of 1000 nM of the compound)”.
For the compound `CN(C)CCNc1ccn(Cc2c(-c3ccc(Cl)cc3)nc3ccccn23)c(=O)n1` [Compound 134, 1-((2-(4-chlorophenyl)imidazo[1,2-a]pyridin-3-yl)methyl)-4-(2-(dimethylamino)ethylamino)pyrimidin-2(1H)-one], the “% Inhibition at 1000 nM for CBZD” value was “++ (percentage of inhibition of central BZD site binding is greater than 80% in the presence of 1000 nM of the compound)”.
As for `Cc1ccc(-c2nc3ccc(C)cn3c2Cn2[nH]c(C)cc2=O)cc1` [Compound 91, 1,2-dihydro-3-methyl-1-((6-methyl-2-p-tolyl-H-imidazo[1,2-a]pyridin-3-yl)methyl)pyrazol-5-one], the entry is “++ (percentage of inhibition of central BZD site binding is greater than 80% in the presence of 1000 nM of the compound)”; as for `O=C1COc2ccccc2N1Cc1c(-c2ccc(Cl)cc2)nc2ccccn12` [Compound 124, 4-((2-(4-chlorophenyl)imidazo[1,2-a]pyridin-3-yl)methyl)-2H-benzo[b][1,4]oxazin-3(4H)-one], “++ (percentage of inhibition of central BZD site binding is greater than 80% in the presence of 1000 nM of the compound)”.
In the case of `Cc1ccc(-c2nc3ccc(C)cn3c2CNc2ccon2)cc1` [Compound 149, N-((6-methyl-2-p-tolylH-imidazo[1,2-a]pyridin-3-yl)methyl)isoxazole-3-amine] it was “++ (percentage of inhibition of central BZD site binding is greater than 80% in the presence of 1000 nM of the compound)”; in that of `Cc1ccc(-c2nc3ccc(C)cn3c2COn2nnc3ccccc32)cc1` [Compound 174, 1-((6-methyl-2-p-tolylH-imidazo[1,2-a]pyridin-3-yl)methoxy)-1H-benzo[d][1,2,3]triazole], “++ (percentage of inhibition of central BZD site binding is greater than 80% in the presence of 1000 nM of the compound)”.
As for `CCOC(=O)c1cc(-c2ccco2)n(Cc2c(-c3ccc(Cl)cc3)nc3ccccn23)n1` [Compound 30, Ethyl 1-((2-(4-chlorophenyl)imidazo[1,2-a]pyridin-3-yl)methyl)-5-(furan-2-yl)-1H-pyrazole-3-carboxylate], the entry is “+ (percentage of inhibition of central BZD site binding is greater than 50% but less than 80% in the presence of 1000 nM of the compound)”; as for `Cc1ccc(-c2nc3c(Cl)cc(Cl)cn3c2CN2CCCC2=O)cc1` [Compound 116, 1-(6,8-Dichloro-2-p-tolyl-imidazo[1,2-a]pyridin-3-ylmethyl)-pyrrolidin-2-one], “++ (percentage of inhibition of central BZD site binding is greater than 80% in the presence of 1000 nM of the compound)”; as for `Cc1ccc(-c2nc3ccc(C)cn3c2CNn2c(C)nc3ccccc3c2=O)cc1` [Compound 155, 2-Methyl-3-[(6-methyl-2-p-tolyl-imidazo[1,2-a]pyridin-3-ylmethyl)-amino]-3H-quinazolin-4-one], “+ (percentage of inhibition of central BZD site binding is greater than 50% but less than 80% in the presence of 1000 nM of the compound)”.
Turning to `Cc1ccc(-c2nc3ccc(C)cn3c2Cn2cccc(C)c2=O)cc1` [Compound 97, 3-methyl-1-((6-methyl-2-p-tolylH-imidazo[1,2-a]pyridin-3-yl)methyl)pyridin-2(1H)-one], the “% Inhibition at 1000 nM for CBZD” value is listed as “++ (percentage of inhibition of central BZD site binding is greater than 80% in the presence of 1000 nM of the compound)”.
As for `CN1CCN(c2cc(Cc3c(-c4ccc(Cl)cc4)nc4ccccn34)ncn2)CC1` [Compound 244, 2-(4-chlorophenyl)-3-((6-(4-methylpiperazin-1-yl)pyrimidin-4-yl)methyl)imidazo[1,2-a]pyridine], the entry is “++ (percentage of inhibition of central BZD site binding is greater than 80% in the presence of 1000 nM of the compound)”; as for `Clc1ccc(-c2nc3ccccn3c2Cn2cncn2)cc1` [Compound 67, 3-((1H-1,2,4-triazol-1-yl)methyl)-2-(4-chlorophenyl)imidazo[1,2-a]pyridine], “++ (percentage of inhibition of central BZD site binding is greater than 80% in the presence of 1000 nM of the compound)”.
For `CSc1nsc(=S)n1Cc1c(-c2ccc(C)cc2)nc2ccc(C)cn12` [Compound 129, 3-Methylsulfanyl-4-(6-methyl-2-p-tolyl-imidazo[1,2-a]pyridin-3-ylmethyl)-4H-[1,2,4]thiadiazole-5-thione], the “% Inhibition at 1000 nM for CBZD” value is reported as “++ (percentage of inhibition of central BZD site binding is greater than 80% in the presence of 1000 nM of the compound)”.
Consider `CCOC(=O)c1cn(Cc2c(-c3ccc(Cl)cc3)nc3ccccn23)c(=O)[nH]c1=O` [Compound 126, Ethyl 1-((2-(4-chlorophenyl)imidazo[1,2-a]pyridin-3-yl)methyl)-2,4-dioxo-1,2,3,4-tetrahydropyrimidine-5-carboxylate], for which the “% Inhibition at 1000 nM for CBZD” value is listed as “− (percentage of inhibition of central BZD site binding is less than 50% in the presence of 1000 nM of the compound)”.
In the case of `Clc1ccc(-c2nc3ccccn3c2Cc2cncc(OC3CCNC3)n2)cc1` (centres unmarked) [Compound 186, 2-(4-chlorophenyl)-3-((6-(pyrrolidin-3-yloxy)pyrazin-2-yl)methyl)imidazo[1,2-a]pyridine] it was “++ (percentage of inhibition of central BZD site binding is greater than 80% in the presence of 1000 nM of the compound)”; in that of `Cc1ccc(-c2nc3ccc(C)cn3c2CNc2ncc[nH]2)cc1` [Compound 153, N-((6-methyl-2-p-tolyl-H-imidazo[1,2-a]pyridin-3-yl)methyl)-1H-imidazol-2-amine], “++ (percentage of inhibition of central BZD site binding is greater than 80% in the presence of 1000 nM of the compound)”.
